The values that follow are results of earlier work, collected in paper PMC9781217, “Discovery of Novel and Selective G-Protein Coupled Receptor 120 (GPR120) Agonists for the Treatment of Type 2 Diabetes Mellitus” (Molecules, 2022).

Structures are written as SMILES.

One may read the EC50 as the midpoint of the concentration-response curve.

In series [1] the test system is GPR120. More on the design: method as in ref 15-26 = [15]; PMID 22519963; doi:10.1021/jm300215x; 15. Shimpukade B. Hudson B.D. Hovgaard C.K. Milligan G. Ulven T. Discovery of a potent and selective GPR120 agonist J. Med. Chem. 2012 55 4511 4515 10.1021/jm300215x 22519963 || [16]; PMID 24881566; doi:10.1016/j.bmcl.2014.05.012; 16. Sparks S.M. Chen G. Collins J.L. Danger D. Dock S.T. Jayawickreme C. Jenkinson S. Laudeman C. Leesnitzer M.A. Liang X. Identification of diarylsulfonamides as agonists of the free fatty acid recep || [17]; PMID 27570890; doi:10.1021/acs.jmedchem.6b00685; 17. Azevedo C.M. Watterson K.R. Wargent E.T. Hansen S.V. Hudson B.D. Kepczynska M.A. Dunlop J. Shimpukade B. Christiansen E. Milligan G. Non-Acidic Free Fatty Acid Receptor 4 Agonists with Antidiabeti || [18]; PMID 27815121; doi:10.1016/j.bmcl.2016.10.054; 18. Lombardo M. Bender K. London C. Kirkland M. Mane J. Pachanski M. Geissler W. Cummings J. Habulihaz B. Akiyama T.E. Discovery of benzofuran propanoic acid GPR120 agonists: From uHTS hit to mechanis || [19]; PMID 28105282; doi:10.1021/acsmedchemlett.6b00394; 19. Adams G.L. Velazquez F. Jayne C. Shah U. Miao S. Ashley E.R. Madeira M. Akiyama T.E. Di Salvo J. Suzuki T. Discovery of Chromane Propionic Acid Analogues as Selective Agonists of GPR120 with in Vi. The note with it: Figure 1, representative GPR120 agonists; cited from earlier work.

Series [2] deals with GPR40. Also on record: method as in ref 15-26 = [15]; PMID 22519963; doi:10.1021/jm300215x; 15. Shimpukade B. Hudson B.D. Hovgaard C.K. Milligan G. Ulven T. Discovery of a potent and selective GPR120 agonist J. Med. Chem. 2012 55 4511 4515 10.1021/jm300215x 22519963 || [16]; PMID 24881566; doi:10.1016/j.bmcl.2014.05.012; 16. Sparks S.M. Chen G. Collins J.L. Danger D. Dock S.T. Jayawickreme C. Jenkinson S. Laudeman C. Leesnitzer M.A. Liang X. Identification of diarylsulfonamides as agonists of the free fatty acid recep || [17]; PMID 27570890; doi:10.1021/acs.jmedchem.6b00685; 17. Azevedo C.M. Watterson K.R. Wargent E.T. Hansen S.V. Hudson B.D. Kepczynska M.A. Dunlop J. Shimpukade B. Christiansen E. Milligan G. Non-Acidic Free Fatty Acid Receptor 4 Agonists with Antidiabeti || [18]; PMID 27815121; doi:10.1016/j.bmcl.2016.10.054; 18. Lombardo M. Bender K. London C. Kirkland M. Mane J. Pachanski M. Geissler W. Cummings J. Habulihaz B. Akiyama T.E. Discovery of benzofuran propanoic acid GPR120 agonists: From uHTS hit to mechanis || [19]; PMID 28105282; doi:10.1021/acsmedchemlett.6b00394; 19. Adams G.L. Velazquez F. Jayne C. Shah U. Miao S. Ashley E.R. Madeira M. Akiyama T.E. Di Salvo J. Suzuki T. Discovery of Chromane Propionic Acid Analogues as Selective Agonists of GPR120 with in Vi. As to conditions: cited from earlier work; for EC50: Figure 1, representative GPR120 agonists.

Series [3] deals with hGPR40. Also on record: method as in ref 15-26 = [15]; PMID 22519963; doi:10.1021/jm300215x; 15. Shimpukade B. Hudson B.D. Hovgaard C.K. Milligan G. Ulven T. Discovery of a potent and selective GPR120 agonist J. Med. Chem. 2012 55 4511 4515 10.1021/jm300215x 22519963 || [16]; PMID 24881566; doi:10.1016/j.bmcl.2014.05.012; 16. Sparks S.M. Chen G. Collins J.L. Danger D. Dock S.T. Jayawickreme C. Jenkinson S. Laudeman C. Leesnitzer M.A. Liang X. Identification of diarylsulfonamides as agonists of the free fatty acid recep || [17]; PMID 27570890; doi:10.1021/acs.jmedchem.6b00685; 17. Azevedo C.M. Watterson K.R. Wargent E.T. Hansen S.V. Hudson B.D. Kepczynska M.A. Dunlop J. Shimpukade B. Christiansen E. Milligan G. Non-Acidic Free Fatty Acid Receptor 4 Agonists with Antidiabeti || [18]; PMID 27815121; doi:10.1016/j.bmcl.2016.10.054; 18. Lombardo M. Bender K. London C. Kirkland M. Mane J. Pachanski M. Geissler W. Cummings J. Habulihaz B. Akiyama T.E. Discovery of benzofuran propanoic acid GPR120 agonists: From uHTS hit to mechanis || [19]; PMID 28105282; doi:10.1021/acsmedchemlett.6b00394; 19. Adams G.L. Velazquez F. Jayne C. Shah U. Miao S. Ashley E.R. Madeira M. Akiyama T.E. Di Salvo J. Suzuki T. Discovery of Chromane Propionic Acid Analogues as Selective Agonists of GPR120 with in Vi. The note with it: Figure 1; cited from earlier work.

The subject of series [4] is human GPR120. Also on record: method as in ref 15-27 = [15]; PMID 22519963; doi:10.1021/jm300215x; 15. Shimpukade B. Hudson B.D. Hovgaard C.K. Milligan G. Ulven T. Discovery of a potent and selective GPR120 agonist J. Med. Chem. 2012 55 4511 4515 10.1021/jm300215x 22519963 || [16]; PMID 24881566; doi:10.1016/j.bmcl.2014.05.012; 16. Sparks S.M. Chen G. Collins J.L. Danger D. Dock S.T. Jayawickreme C. Jenkinson S. Laudeman C. Leesnitzer M.A. Liang X. Identification of diarylsulfonamides as agonists of the free fatty acid recep || [17]; PMID 27570890; doi:10.1021/acs.jmedchem.6b00685; 17. Azevedo C.M. Watterson K.R. Wargent E.T. Hansen S.V. Hudson B.D. Kepczynska M.A. Dunlop J. Shimpukade B. Christiansen E. Milligan G. Non-Acidic Free Fatty Acid Receptor 4 Agonists with Antidiabeti || [18]; PMID 27815121; doi:10.1016/j.bmcl.2016.10.054; 18. Lombardo M. Bender K. London C. Kirkland M. Mane J. Pachanski M. Geissler W. Cummings J. Habulihaz B. Akiyama T.E. Discovery of benzofuran propanoic acid GPR120 agonists: From uHTS hit to mechanis || [19]; PMID 28105282; doi:10.1021/acsmedchemlett.6b00394; 19. Adams G.L. Velazquez F. Jayne C. Shah U. Miao S. Ashley E.R. Madeira M. Akiyama T.E. Di Salvo J. Suzuki T. Discovery of Chromane Propionic Acid Analogues as Selective Agonists of GPR120 with in Vi. The note with it: cited from earlier work.

Turning to `CO[C@H]1C[C@H](Oc2cc(F)c(F)c(-c3ccc4c(c3)CC[C@H](CCC(=O)O)O4)c2)C1` [Compound 4], the figures for the concentration giving a half-maximal response (EC50) in series [1] and in series [2] were 35 nM and greater than 10000 nM, respectively.

For the compound `Cc1ccc(-c2ccc(F)cc2COc2ccc(CC3SC(=O)NC3=O)c(Cl)c2)cc1` (stereo not shown) [Compound 8], the EC50 in series [1] was 76 nM; in series [2] it was 79000 nM.

With `O=S1(=O)c2ccccc2CN1c1cc(F)cc(Oc2ccccn2)c1` [Compound 5], the concentration for a half-maximal effect (EC50) in series [1] is 123 nM. Moreover, the GPR40 activity entry in series [2] (at 100 μM, Figure 1) is “Inactive”.

`CO[C@H]1C[C@H](Oc2cc(F)c(F)c(-c3c(F)cc(OCCCC(=O)O)cc3F)c2)C1` [Compound 6]: the EC50 was greater than 100000 nM in series [3] and 93 nM in series [4].

As for `Cc1ccc(-n2nc(C)c3cnc(-c4ccc([C@H]5C[C@@H]5C(=O)O)cc4)cc32)nc1` [Compound 3], the EC50 in series [1] was 740 nM; in series [2], greater than 100000 nM.

On to `O=C(O)CC1CCC2(CC1)CCN(c1cc(OC(F)(F)F)ccc1Cl)CC2` [Compound 2], for which, in series [2], the EC50 is greater than 10000 nM.

As to `O=C(O)CCc1cc(F)c(OCc2c(-c3ccc(Cl)cc3F)nsc2C(F)(F)F)c(F)c1` [Compound 7], the EC50 in series [1] is 42 nM; in series [2], greater than 5000 nM.
